From patent US20100137421A1, “SMALL MOLECULE THERAPEUTICS, SYNTHESIS OF ANALOGUES AND DERIVATIVES AND METHODS OF USE” (priority 2006, published 2010)
Where two headings read alike, the source gives them in different places.

Legend:
[1] = tested on: HL-60/ADR cells (multidrug resistant clone, mdr-1 transfected); assay: 3H-thymidine incorporation assay, HL-60/ADR; format: cell-based; details: 48 h incubation, 3H-thymidine pulse 6 h, read-out: IC50, inhibition of cell proliferation, HL-60/ADR
Description: (§1) The ability of the compounds to inhibit cancer cell growth was evaluated in promyelocytic leukemia cell line, HL-60, using a ^3H-thymidine incorporation assay. Cells were plated in a 96-well plate at 10-20×10^3 cells/well in RPMI supplemented with 10% fetal bovine serum, 2 mM glutamine, 1% penicillin/streptomycin (complete medium). The caged Garcinia xanthones were added to the cells at increasing concentrations and 0.1% DMSO was added to control cells. Cells were incubated for 48 h and then pulsed with ^3H-thymidine for 6 h. Incorporation of ^3H-thymidine was determined in a scintillation counter (Beckman Coulter Inc., Fullerton, Calif.) after cells were washed and deposited onto glass microfiber filters using a cell harvester M-24 (Brandel, Gaithersburg, Md.). Table 1 provides IC50 values for the natural products gambogic acid and gambogin, forbesione and deoxymorellin.
The compounds were also evaluated in HL-60/ADR cells, a multidrug resistant clone obtained by transfection of HL-60 cells with mdr-1. (See, A. Batova, L. E. Shao, M. B. Diccianni, A. L. Yu, T. Tanaka, A. Rephaeli, A. Nudelman and J. Yu, Blood, 2002, 100, 3319-24). […] Without being bound to any particular theory, it is believed that the caged Garcinia xanthones are not subject to the mechanism of chemo-resistance resulting from the expression of mdr, characteristic of many relapsed cancers. (See, M. M. Gottesman and I. Pastan, Annu. Rev. Biochem., 1993, 62, 385-427; S. Simon, D. Roy and M. Schindler, PNAS, 1994, 91, 1128-1132 and A. K. Larsen, A. E. Escargeuil and A. Skladanowski, Pharmacol. Ther., 2000, 85, 217-229).

[2] = tested on: HL-60 promyelocytic leukemia cell line; assay: 3H-thymidine incorporation assay, HL-60; format: cell-based; details: HL-60, 48 h incubation, 3H-thymidine pulse 6 h, read-out: IC50, inhibition of cell proliferation, HL-60
Description: as §1

[3] = tested on: PC3 (prostate); assay: Trypan-blue exclusion assay, PC3; format: cell-based
[4] = tested on: A549 (lung); assay: Trypan-blue exclusion assay, A549; format: cell-based
[5] = tested on: M21 (melanoma); assay: Trypan-blue exclusion assay, M21; format: cell-based
Description: (§2) Compounds such as desoxymorellin, gambogic acid, gambogin and 17 were further evaluated in a panel of solid and non-solid tumor cell lines. CEM cells were plated in a 24-well plate in complete media at 50×10^3 cells/well. Cells were treated with gambogin at concentrations of 0.25, 0.5, 1.0 μM or with 0.1% DMSO (control cells). Cells were incubated for 4 days and then the number of viable cells was determined after the addition of trypan-blue dye by counting the cells which exclude trypan-blue in a hemocytometer. Data for inhibition of cell proliferation is provided in.

[6] = tested on: MCF-7 (breast); assay: Trypan-blue exclusion assay, MCF-7; format: cell-based
[7] = tested on: HT29 (colon); assay: Trypan-blue exclusion assay, HT29; format: cell-based
[8] = tested on: CEM T-cell acute lymphoblastic leukemia cell line; assay: Trypan-blue exclusion assay, CEM; format: cell-based; details: Homo sapiens, read-out: IC50 (μM), CEM leukemia
Description: as §2

[9] = tested on: HUVE cells; assay: Apoptosis assay (Cell Death Detection ELISA PLUS); format: cell-based, human
Description: The compounds were dissolved in DMSO and further diluted with Endothelial Cell Growth Medium (PromoCell, Heidelberg, Germany) to obtain final concentrations as indicated. HUVE cells were seeded into each well of a 96-well cell culture plate at 10000 cells per well and incubated at 37° C. for 10 h with the indicated concentrations of each compound. The final volume was 100 μL per well. Control samples were incubated with the solvent alone. Each sample was repeated three times. The proapoptotic effect was detected by using the Cell Death Detection ELISA^PLUS kit (Roche Diagnostics GmbH, Mannheim, Germany) according to the manufactor's instructions. The kit constitutes a photometric enzyme-immunoassay for the qualitative and quantitative in vitro determination of cytoplasmic histone-associated-DNA-fragments (mono- and oligo-nucleosomes) after induced cell death. Due to the working procedure the kind of cell death (apoptosis or necrosis) […]. The absorption values A (A405nm-A490nm) measured give a quantitative indication of the induced amount of apoptosis/necrosis. The higher the absorption A, the higher the induction of apoptosis/necrosis at the corresponding concentrations of the compounds.

[10] = WST assay, cell viability; format: cell-based; details: human, HUVE (human umbilical vein endothelial) cells, 24 h incubation, read-out: IC50, cytotoxicity (WST assay)
Description: Cell viability was determined using the WST assay in HUVE (human umbilical vein endothelial) cells that measures metabolic activity of cells alive. Compound 17 was dissolved in DMSO and further diluted with Endothelial Cell Growth Medium (PromoCell, Heidelberg, Germany) to obtain a final concentration as indicated. HUVE cells (PromoCell, Heidelberg, Germany) were seeded into each well of a 96-well cell culture plate at 7000 cells per well and incubated at 37° C. for 24 h with the indicated concentrations of each compound. The final volume was 100 μL per well. Control samples were incubated with the solvent alone. Each experiment was repeated in triplicate. Afterwards the WST-1 reagent was added to the cells at 10 μL per well and the cells further incubated at 37° C. for additional 3 h. Then the cell culture plate was agitated thoroughly for 1 minute on a shaker at 200 U/min. The absorbance of each sample was measured using a microplate reader at 440 nm. The reference wavelength was 690 nm.

[11] = Animal study, body weight/toxicity in SCID mice injected with primary human leukemia cells; format: in vivo; details: IV injections
Description: SCID mice were injected with primary human leukemia cells. Seven days following injection of leukemia cells, mice were given IV injections of gambogic acid, gambogic acid analog (17), or PBS (control). Each treatment group contained 3 mice which were monitored for body weight upon each injection.

[12] = tested on: (HeLa) Henrietta Lacks cervical cancer cells; details: cited from earlier work
[13] = tested on: HEL (Human Embryonic Lung fibroplasts); details: cited from earlier work

`CC(C)=CCc1c2c(c(O)c3c1O[C@@]14C(=C[C@H]5CC1C(C)(C)O[C@]4(CC=C(C)C)C5=O)C3=O)C=CC(C)(C)O2` [desoxymorellin] showed an IC50 [1] of 1100 nM, an IC50 [2] of 1000 nM and an IC50 ([3]; PC3) of 1.2 µM. The IC50 [4] was 2.1 µM, the IC50 [5] was 1.6 µM and the IC50 ([6]; MCF-7) was 0.9 µM. It also gave an IC50 ([7]; HT29) of 1.2 µM.

For `CC(C)=CCc1c(O)cc(O)c2c1O[C@]13C(=C[C@@H]4C[C@H]1C(C)(C)O[C@@]3(CC=C(C)C)C4=O)C2=O` [Forbesione], the IC50 [1] was 2000 nM and the IC50 [2] was 2200 nM.

`CC(C)=CCCC1(C)C=Cc2c(O)c3c(c(CC=C(C)C)c2O1)O[C@]12C(=CC4C[C@H]1C(C)(C)OC2(CC=C(C)C)C4=O)C3=O` (stereo partly drawn) [gambogin] showed an IC50 ([8]; CEM-4, 96 h) of 0.35 µM, an IC50 ([1]; Homo sapiens, HL60/ADR) of 1100 nM and an IC50 ([2]; Homo sapiens) of 800 nM. It also gave an IC50 ([3]; Homo sapiens, PC-3) of 1.1 µM, an IC50 ([4]; Homo sapiens) of 1.8 µM and an IC50 ([5]; Homo sapiens) of 1 µM. The IC50 ([6]; Homo sapiens, MCF7) was 1.1 µM and the IC50 ([7]; Homo sapiens, HT-29) was 1 µM.

Work on `CC(C)=CCC12OC(C)(C)C3CC(C=C4C(=O)c5ccccc5OC431)C2=O` (stereo not drawn) [Compound 17] yielded an IC50 ([8]; 96 h, CEM, 4 days incubation) of 0.3 µM, an IC50 ([1]; Homo sapiens, HL60/ADR) of 1400 nM and an IC50 ([2]; Homo sapiens) of 1500 nM. For the same molecule, the “subset of cells with necrosis” value ([9]; HUVE cells, concentrations >3 μM, 10 h) was about 10%, the cell necrosis ([9]; HUVE cells, concentrations lower than 1.5 μM, 10 h) was “not detected” and the “HUVE cells undergoing apoptosis” value ([9]; after 10 h, dose-dependent) was over 90%. It also gave an IC50 ([4]; Homo sapiens) of over 4 µM, an IC50 ([5]; Homo sapiens) of 2.2 µM and an IC50 at 24 h [10] of 1380 nM. For the same molecule, the IC50 ([7]; Homo sapiens, HT-29) was 3.1 µM and the “toxicity (body weight) compared to PBS control” value [11] was “no significant toxicity”.

`CC(C)=CCC[C@]1(C)C=Cc2c(O)c3c(c(CC=C(C)C)c2O1)O[C@]12C(=C[C@@H]4C[C@H]1C(C)(C)O[C@@]2(C/C=C(/C)C(=O)O)C4=O)C3=O` [gambogic acid] gave an IC50 ([8]; 96 h, CEM, 4 days incubation) of 0.15 µM, an IC50 ([1]; Homo sapiens, HL60/ADR) of 500 nM and an IC50 ([2]; Homo sapiens) of 300 nM. It also gave an IC50 ([3]; Homo sapiens, PC-3) of 0.4 µM, an IC50 ([4]; Homo sapiens) of 1.8 µM and an IC50 ([5]; Homo sapiens) of 1.2 µM. For the same molecule, the IC50 ([6]; Homo sapiens, MCF7) was 0.4 µM, the IC50 ([7]; Homo sapiens, HT-29) was 0.7 µM and the “toxicity (body weight) compared to PBS control” value [11] was “some toxicity”.

For `CC(C)=CCc1c2c(c(O)c3c1O[C@]14C(=C[C@@H]5C[C@H]1C(C)(C)O[C@@]4(C/C=C(/C)C=O)C5=O)C3=O)C=CC(C)(C)O2` [morellin], the “cytotoxicity against HeLa” value [12] is listed as “good cytotoxicity” and the “cytotoxicity against HEL” value [13] is listed as “good cytotoxicity”.
